A word on the IC50: it is the concentration needed to halve the response being measured. As a reminder, the CC50 is the concentration that lowers cell viability or growth by half.

Calls of active or inactive are those of the source. Rule as the data show it, for most assays here: actives have a measured IC50 and inactives only a lower limit.

Experimental findings from ChEMBL document CHEMBL1201862, “PubChem BioAssay data set” (2004) are described below.

Common to all, as to assay type: functional
The target in assay [1] is T1, Ubiquitin-conjugating enzyme E2 N (Homo sapiens, UniProt P61088).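 Also: Dose-response confirmation in a TR-FRET assay detecting UBC13-driven polyubiquitin chain formation, inhibition measured.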
T1 sequence (P61088 whole entry): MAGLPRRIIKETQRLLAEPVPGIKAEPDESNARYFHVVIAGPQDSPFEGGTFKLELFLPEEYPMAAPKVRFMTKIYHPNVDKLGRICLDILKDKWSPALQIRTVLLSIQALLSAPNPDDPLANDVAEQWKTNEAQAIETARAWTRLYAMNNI

Assay [2] can be described thus: viability of uninfected HEp-2 cells – cell-based, HTS, cytotoxicity control for RSV inhibitor project, dose response (AID 2410). To be noted: human respiratory syncytial virus.
For assay [3], the target named is T2, Apoptotic protease-activating factor 1 (Homo sapiens, UniProt O14727).
T2 sequence (O14727 whole entry): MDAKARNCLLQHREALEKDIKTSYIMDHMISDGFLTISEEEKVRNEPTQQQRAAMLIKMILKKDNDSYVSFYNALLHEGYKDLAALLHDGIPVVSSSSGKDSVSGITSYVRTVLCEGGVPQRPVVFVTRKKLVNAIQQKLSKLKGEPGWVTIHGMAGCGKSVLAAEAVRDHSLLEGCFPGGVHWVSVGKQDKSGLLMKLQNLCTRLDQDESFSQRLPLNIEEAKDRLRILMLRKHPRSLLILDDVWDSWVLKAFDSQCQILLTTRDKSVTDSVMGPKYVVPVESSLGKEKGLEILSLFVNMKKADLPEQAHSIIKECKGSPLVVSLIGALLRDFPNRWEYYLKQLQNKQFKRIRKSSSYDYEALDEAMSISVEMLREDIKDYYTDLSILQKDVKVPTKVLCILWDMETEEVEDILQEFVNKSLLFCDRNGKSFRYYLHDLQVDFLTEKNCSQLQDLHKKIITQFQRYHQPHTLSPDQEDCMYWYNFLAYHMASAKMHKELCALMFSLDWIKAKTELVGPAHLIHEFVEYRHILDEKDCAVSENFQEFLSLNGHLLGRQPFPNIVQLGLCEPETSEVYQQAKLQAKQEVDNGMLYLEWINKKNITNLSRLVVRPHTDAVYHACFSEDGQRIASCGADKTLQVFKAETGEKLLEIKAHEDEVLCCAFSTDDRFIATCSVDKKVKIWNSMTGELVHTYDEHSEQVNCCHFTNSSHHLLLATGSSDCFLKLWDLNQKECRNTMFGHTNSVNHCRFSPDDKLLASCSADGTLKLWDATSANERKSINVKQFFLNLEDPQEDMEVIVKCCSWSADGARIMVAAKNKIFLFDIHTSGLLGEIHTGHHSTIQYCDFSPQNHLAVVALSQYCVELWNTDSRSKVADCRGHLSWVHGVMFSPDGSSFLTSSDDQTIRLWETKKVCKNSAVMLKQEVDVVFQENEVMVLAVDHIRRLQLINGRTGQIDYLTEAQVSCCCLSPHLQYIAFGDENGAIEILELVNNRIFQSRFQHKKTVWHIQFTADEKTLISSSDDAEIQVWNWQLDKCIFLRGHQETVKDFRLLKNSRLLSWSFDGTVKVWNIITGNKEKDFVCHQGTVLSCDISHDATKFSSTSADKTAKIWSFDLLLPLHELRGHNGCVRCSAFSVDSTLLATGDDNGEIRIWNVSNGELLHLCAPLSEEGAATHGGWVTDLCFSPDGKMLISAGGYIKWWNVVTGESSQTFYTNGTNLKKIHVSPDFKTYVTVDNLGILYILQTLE

Assay [4] concerns the target T3, Sentrin-specific protease 8 (Homo sapiens, UniProt Q96LD8).
T3 sequence (Q96LD8 whole entry): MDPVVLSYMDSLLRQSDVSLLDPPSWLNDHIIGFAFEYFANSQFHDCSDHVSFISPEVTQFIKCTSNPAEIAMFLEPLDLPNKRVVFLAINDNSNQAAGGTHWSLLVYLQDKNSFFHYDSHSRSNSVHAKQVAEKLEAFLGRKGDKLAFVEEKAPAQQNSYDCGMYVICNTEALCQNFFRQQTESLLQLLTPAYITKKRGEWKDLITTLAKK
The assay can be described thus: inhibition of human SENP8 cleavage activity – biochemical, luminescence, SAR follow-up (AID 504501).

The target of another assay is T4, Caspase-3 (Homo sapiens, UniProt P42574).
T4 sequence (P42574 whole entry): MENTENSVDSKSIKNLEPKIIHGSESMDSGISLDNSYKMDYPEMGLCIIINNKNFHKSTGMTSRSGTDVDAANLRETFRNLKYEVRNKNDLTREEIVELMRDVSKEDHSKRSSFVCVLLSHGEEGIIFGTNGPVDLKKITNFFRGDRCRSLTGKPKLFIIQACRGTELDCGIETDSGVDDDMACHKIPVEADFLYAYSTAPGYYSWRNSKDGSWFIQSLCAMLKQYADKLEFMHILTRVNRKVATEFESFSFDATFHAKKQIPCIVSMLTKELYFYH
The assay can be described thus: SAR Analysis of small molecule inhibitors of Sentrin-specific proteases (SENPs) using a Caspase-3 Selectivity assay. [Related pubchem assays (depositor defined):AID2540, AID2599, AID434973, AID489001].

In assay [5] the target is T5, Sentrin-specific protease 7 (Homo sapiens, UniProt Q9BQF6).
T5 sequence (Q9BQF6 whole entry): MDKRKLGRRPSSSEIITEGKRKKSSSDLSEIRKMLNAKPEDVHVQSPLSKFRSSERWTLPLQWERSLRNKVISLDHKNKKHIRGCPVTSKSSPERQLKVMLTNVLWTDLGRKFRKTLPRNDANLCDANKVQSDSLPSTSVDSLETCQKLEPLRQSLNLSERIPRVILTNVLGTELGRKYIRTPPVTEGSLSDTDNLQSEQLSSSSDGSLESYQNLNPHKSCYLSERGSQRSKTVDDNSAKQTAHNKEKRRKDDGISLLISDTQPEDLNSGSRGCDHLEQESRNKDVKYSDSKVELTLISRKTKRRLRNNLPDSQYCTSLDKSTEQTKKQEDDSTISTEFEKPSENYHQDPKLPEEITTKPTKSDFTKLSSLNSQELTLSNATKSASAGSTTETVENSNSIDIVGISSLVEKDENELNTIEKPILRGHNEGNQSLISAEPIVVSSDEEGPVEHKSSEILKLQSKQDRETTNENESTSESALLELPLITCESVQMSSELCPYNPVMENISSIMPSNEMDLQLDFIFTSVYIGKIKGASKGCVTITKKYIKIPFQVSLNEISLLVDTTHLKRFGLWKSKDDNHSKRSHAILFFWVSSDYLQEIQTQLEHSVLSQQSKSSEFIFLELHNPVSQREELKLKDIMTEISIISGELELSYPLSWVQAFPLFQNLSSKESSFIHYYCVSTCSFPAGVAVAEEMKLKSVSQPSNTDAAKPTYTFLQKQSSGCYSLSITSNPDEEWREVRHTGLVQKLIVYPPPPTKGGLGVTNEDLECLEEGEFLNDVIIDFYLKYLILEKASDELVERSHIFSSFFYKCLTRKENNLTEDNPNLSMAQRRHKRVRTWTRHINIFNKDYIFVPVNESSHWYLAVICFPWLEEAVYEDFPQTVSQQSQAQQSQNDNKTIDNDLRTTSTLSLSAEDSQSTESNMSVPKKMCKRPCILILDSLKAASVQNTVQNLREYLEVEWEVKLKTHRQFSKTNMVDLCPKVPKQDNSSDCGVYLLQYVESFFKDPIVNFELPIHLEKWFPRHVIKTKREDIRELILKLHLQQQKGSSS
Put plainly: inhibition of human SENP7 cleavage activity – biochemical, luminescence, SAR follow-up (AID 504497).

For assay [6], the target named is T6, Sentrin-specific protease 6 (Homo sapiens, UniProt Q9GZR1).
T6 sequence (Q9GZR1 whole entry): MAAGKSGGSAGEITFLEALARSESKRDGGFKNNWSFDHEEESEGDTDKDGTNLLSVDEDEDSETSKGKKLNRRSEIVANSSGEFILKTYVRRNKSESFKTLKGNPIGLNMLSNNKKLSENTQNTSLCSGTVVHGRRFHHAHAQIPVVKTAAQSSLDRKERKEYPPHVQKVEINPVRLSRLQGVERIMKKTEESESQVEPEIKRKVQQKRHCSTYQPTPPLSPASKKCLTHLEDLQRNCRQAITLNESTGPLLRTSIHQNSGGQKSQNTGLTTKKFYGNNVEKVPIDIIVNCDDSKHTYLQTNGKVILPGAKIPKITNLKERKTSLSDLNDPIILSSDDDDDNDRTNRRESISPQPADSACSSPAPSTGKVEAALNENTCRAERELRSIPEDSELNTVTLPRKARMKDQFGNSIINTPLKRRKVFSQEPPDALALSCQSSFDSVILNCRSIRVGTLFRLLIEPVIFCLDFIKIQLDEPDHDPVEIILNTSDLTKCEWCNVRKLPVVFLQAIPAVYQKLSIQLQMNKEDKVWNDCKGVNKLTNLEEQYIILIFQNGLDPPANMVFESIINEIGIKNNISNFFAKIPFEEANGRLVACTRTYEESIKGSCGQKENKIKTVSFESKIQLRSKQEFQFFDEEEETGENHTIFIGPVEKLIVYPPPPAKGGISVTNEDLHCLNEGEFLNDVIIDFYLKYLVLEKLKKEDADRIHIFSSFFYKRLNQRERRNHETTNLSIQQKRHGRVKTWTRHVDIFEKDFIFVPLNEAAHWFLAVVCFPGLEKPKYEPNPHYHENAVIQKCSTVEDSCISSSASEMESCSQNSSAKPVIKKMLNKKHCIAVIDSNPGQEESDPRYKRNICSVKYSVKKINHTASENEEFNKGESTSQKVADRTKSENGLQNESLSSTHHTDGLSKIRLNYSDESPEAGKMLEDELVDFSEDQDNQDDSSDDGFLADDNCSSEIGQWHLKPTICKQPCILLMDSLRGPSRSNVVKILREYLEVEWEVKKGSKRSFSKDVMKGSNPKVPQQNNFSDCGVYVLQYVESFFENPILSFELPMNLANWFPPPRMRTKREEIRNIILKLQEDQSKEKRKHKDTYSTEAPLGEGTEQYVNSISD
The assay can be described thus: SAR Analysis of small molecule inhibitors of Sentrin-specific protease 6 (SENP6) using a Luminescent assay. [Related pubchem assays (depositor defined):AID2582, AID2599].

Take `COc1ccc(S(=O)(=O)N2CCN(c3ccc4nnc(-c5ccc(F)cc5)n4n3)CC2)cc1`: the IC50 was > 20 µM (inactive) in assay [1] and 19.2 µM (active) in assay [3]. For the same molecule, the CC50 in assay [2] is > 50 µM (active).

With `O=C(c1ccc(Cl)s1)N(Cc1cccnc1)c1nc2c(F)cc(F)cc2s1`, the IC50 (in assay [4]; at Caspase-3; in assay [5]; in assay [6]) was > 99 µM (inactive) throughout.

On to `Cc1ccc(C(=O)Nc2sc3c(c2C#N)CCCCCC3)o1`, for which the IC50 in assay [4] was > 99 µM (inactive); on Caspase-3, > 99 µM (inactive); in assay [5], 39.1 µM (active); in assay [6], > 99 µM (inactive).
